Experimental data reported in PubChem BioAssay (NCI).
Values joined by “and” are separate entries in the source; they are usually repeats but may differ in a detail not shown here. Equal values may be shown once.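 Cultured in 96-well plates, cells were exposed to test compound for 48 hours across five concentrations. GI50 = concentration required for 50% inhibition of growth. TGI is the concentration that stops growth completely.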

Tests used:
Assay in all cases: inhibition of tumour cell growth, NCI panel, 48 h
A498 renal = test system: A498 renal
HOP-62 NSCLC = test system: HOP-62 NSCLC
MALME-3M melanoma = test system: MALME-3M melanoma
T-47D breast = test system: T-47D breast
CCRF-CEM leukemia = test system: CCRF-CEM leukemia
COLO 205 colon = test system: COLO 205 colon
M14 melanoma = test system: M14 melanoma
U251 CNS = test system: U251 CNS
UO-31 renal = test system: UO-31 renal
LOX IMVI melanoma = test system: LOX IMVI melanoma

| Compound | GI50 (A498 renal) | TGI (A498 renal) | GI50 (HOP-62 NSCLC) | TGI (HOP-62 NSCLC) [µM] | GI50 (MALME-3M melanoma) | TGI (MALME-3M melanoma) | GI50 (T-47D breast) | TGI (T-47D breast) | GI50 (CCRF-CEM leukemia) | TGI (CCRF-CEM leukemia) [µM] | GI50 (COLO 205 colon) | TGI (COLO 205 colon) | GI50 (M14 melanoma) | TGI (M14 melanoma) [µM] | GI50 (U251 CNS) | TGI (U251 CNS) [µM] | GI50 (UO-31 renal) | TGI (UO-31 renal) [µM] | GI50 (LOX IMVI melanoma) | TGI (LOX IMVI melanoma) |
| --- | --- | --- | --- | --- | --- | --- | --- | --- | --- | --- | --- | --- | --- | --- | --- | --- | --- | --- | --- | --- |
| COc1cc(/C=C/C(=O)c2c(-c3ccc(F)cc3)nc3sc(C)nn23)cc(OC)c1OC | 2.3 µM | 7.23 µM | 2.28 µM | 7.06 | 4.26 µM | 16.9 µM | 2.09 µM | 7.57 µM | 2 µM | 5.95 | 1.98 µM | 3.77 µM | 3.05 µM | 8.1 | 2.01 µM | 5.45 | 1.95 µM | 4.94 | 1.76 µM | 3.52 µM |
| CN(C)CCOc1ccccc1NC1=C(Cl)C(=O)C(Nc2ccccc2OCCN(C)C)=C(Cl)C1=O | > 38.2 µM | > 53.8 µM | 39.1 µM | > 100 | 3.31 µM | 12.8 µM | 0.811 µM | 3.16 µM | 0.966 µM | – | 1.78 µM | 3.77 µM | > 27 µM | > 84.6 | 10.2 µM | 39.5 | 0.735 µM | 2.22 | 0.592 µM | 1.25 µM |
| O=[N+]([O-])c1ccc2c(c1)C(c1ccccc1Cl)=Nc1c(n[nH]c1-c1cccnc1)N2 | > 20.3 µM | > 25 µM | > 25 µM | > 25 | > 25 µM | > 25 µM | > 25 µM | > 25 µM | > 25 µM | > 25 | > 25 µM | > 25 µM | > 25 µM | > 25 | > 25 µM | > 25 | > 25 µM | > 25 | > 25 µM | > 25 µM |
| COc1cc(C2CC(=O)Nc3c2c(C)nn3-c2nc3ccccc3[nH]2)cc(OC)c1O (centres undefined) | 1.86 µM | 6.1 µM | 3.72 µM | 17 | 1.75 µM | 3.74 µM | 3.45 µM | 16.9 µM | 1.34 µM | > 100 | 17.2 µM | 46 µM | 2.12 µM | 5.53 | 3.49 µM | > 40.8 | 2.49 µM | 7.7 | 3.08 µM | 10.9 µM |
| NC(N)=Nc1ccc(/C=C2\C=Cc3ccccc32)cc1 | 4.83 µM | 19.2 µM | 2.4 µM | 6.23 | 4.41 µM | 16.5 µM | 2.48 µM | 7.39 µM | 2.09 µM | 4.9 | 1.99 µM | 3.7 µM | 2.05 µM | 5.44 | 1.72 µM | 3.31 | 2.15 µM | 6.58 | 1.63 µM | 3.02 µM |
| [Cu+2].[NH-]C(CC(=O)O)C(=O)O.[NH-]C(CC(=O)O)C(=O)O (centres undefined) | 36.7 µM | > 100 µM | > 100 µM | > 100 | > 100 µM | > 100 µM | > 100 µM | > 100 µM | 0.929 µM | > 100 | > 100 µM | > 100 µM | > 100 µM | > 100 | > 100 µM | > 100 | > 100 µM | > 100 | > 100 µM | > 100 µM |
| O=[N+]([O-])c1oc2ccc3ccccc3c2c1CCO | – | 0.72 µM | – | > 67.1 | – | 3.84 µM | – | 73.3 µM | – | 39.9 | – | 1.46 µM | – | 5.24 | – | 56.9 | – | 3.89 | – | 9.52 µM |
| CC/C=C\C[C@H](O)C/C=C1/C(=O)C=C[C@@H]1C/C=C\CCCCO | 16.8 µM | 32.5 µM | 2.12 µM | 5 | 2.44 µM | 7.48 µM | 2.63 µM | 11.1 µM | 2.43 µM | 16.5 | 2.45 µM | 5.99 µM | 2.06 µM | 6.17 | 3.81 µM | 13.4 | 1.63 µM | 3.23 | 1.34 µM | 2.93 µM |
| CC(C)Cc1ccc(C(C)C(=O)NCc2ccc(Cn3c(=O)sn(CCCI)c3=O)cc2)cc1 (centres undefined) | 1.43 µM | 2.75 µM | 1.53 µM | 3.6 | 1.41 µM | 2.8 µM | 1.64 µM | 5.93 µM | 0.279 µM | > 100 | 0.271 µM | 1.14 µM | 0.429 µM | 1.34 | 1.43 µM | 2.89 | 0.407 µM | 1.49 | 0.181 µM | 0.393 µM |
| COc1ccc(OC)c(/C=C/c2ccnc3ccccc23)c1 | – | 3.8 µM | – | 18 | – | 21.5 µM | – | 29.5 µM | – | 5.91 | – | 0.863 µM | – | 17.8 | – | 5.66 | – | 6.99 | – | 14.4 µM |
| Cc1ccccc1C(C(=O)NC1CCCCC1)N(C(=O)CNc1ccc(C#N)cc1)c1cccc(F)c1 (centres undefined) | 24 µM | 74.4 µM | 3.51 µM | 14.4 | 15.7 µM | > 91.3 µM | 31.4 µM | > 100 µM | > 100 µM | > 100 | > 83.2 µM | > 100 µM | 80.9 µM | > 100 | 5.28 µM | > 100 | > 93.5 µM | > 100 | 44.9 µM | > 100 µM |
| COc1ccc(Cn2cc3c(c2-c2cc(OC)c(OC)c(OC)c2)CCc2c(CO)noc2-3)cc1 | 0.187 µM | 3.03 µM | 0.397 µM | 25.7 | 2.46 µM | 29.3 µM | 0.376 µM | 59.3 µM | 0.347 µM | 23.7 | 0.339 µM | 4.28 µM | 0.215 µM | 2.88 | 0.349 µM | 15.5 | 0.639 µM | 22.4 | 0.615 µM | 16.6 µM |
| CC1Cc2ccccc2N1C(=O)Cc1nc(N2CCOCC2)cc(=O)[nH]1 (centres undefined) | 0.026 µM and 0.0929 µM | 0.189 µM and 0.559 µM | 53.8 µM and 59.9 µM | > 100 | 3.18 µM and 7.81 µM | 61.9 µM and > 79.1 µM | 1.6 µM and 3.73 µM | 42.6 µM and 99.7 µM | 20.7 µM and 46.7 µM | > 100 | 17.4 µM and 53.8 µM | 46.2 µM and > 100 µM | 13.8 µM and 27 µM | > 100 | 21.8 µM and 45.9 µM | > 100 | 2.26 µM and 3.28 µM | > 100 | 11.6 µM and 16.7 µM | 73.7 µM and > 100 µM |
| Cc1ccccc1C(C(=O)NC1CCCCC1)N(C(=O)CNc1ncccc1F)c1cccc(F)c1 (centres undefined) | 49.6 µM | > 100 µM | 14.8 µM | > 64.3 | > 100 µM | > 100 µM | 60.8 µM | > 100 µM | > 100 µM | > 100 | > 100 µM | > 100 µM | > 100 µM | > 100 | 27.6 µM | > 100 | > 100 µM | > 100 | > 100 µM | > 100 µM |
| Cc1ccc(OCCOCCOCCOCCOCCOc2ccc(C)n(O)c2=S)c(=S)n1O | 0.149 µM | 3.88 µM | 0.0789 µM | > 84.6 | 0.109 µM | > 34.6 µM | 0.0402 µM | > 100 µM | 0.0504 µM | > 100 | 0.0428 µM | > 100 µM | 0.0619 µM | 0.43 | 0.0633 µM | > 100 | 0.0377 µM | 2.02 | 0.054 µM | 21.8 µM |
| C=C1C(=O)O[C@H]2[C@H]1CC/C(CNC(=O)/C=C/c1ccccc1F)=C\CC[C@@]1(C)O[C@@H]21 | 2.6 µM | 7.49 µM | 3.89 µM | 16.6 | 1.54 µM | 3.52 µM | 1.74 µM | 4.53 µM | 0.416 µM | 2.92 | 1.4 µM | 2.96 µM | 1.34 µM | 3.05 | 1.86 µM | 3.75 | 1.34 µM | 2.91 | 1.19 µM | 2.56 µM |
| Cn1c(=O)c(Oc2ccc(F)cc2F)cc2cnc(NC3CCOCC3)nc21 | 5 µM | > 25 µM | > 25 µM | > 25 | > 25 µM | > 25 µM | > 25 µM | > 25 µM | > 25 µM | > 25 | > 25 µM | > 25 µM | > 25 µM | > 25 | > 25 µM | > 25 | 8.06 µM | > 19.3 | > 25 µM | > 25 µM |
| NC(=O)c1cc(Br)ccc1NC(=O)/C=C/c1ccccc1 | 1.66 µM | 11.7 µM | 5.47 µM | > 23.7 | 11.6 µM | > 100 µM | 3.51 µM | > 100 µM | 0.803 µM | 9.97 | 1.23 µM | > 39.5 µM | 1.96 µM | > 100 | 1.81 µM | > 43.4 | 3.37 µM | > 100 | 10.6 µM | > 100 µM |
| COc1ccc(-c2cn(-c3cc(OC)c(OC)c(OC)c3)c(=O)[nH]2)cc1OC | 80.3 µM | > 100 µM | > 100 µM | > 100 | > 100 µM | > 100 µM | > 100 µM | > 100 µM | > 100 µM | > 100 | > 100 µM | > 100 µM | > 100 µM | > 100 | > 100 µM | > 100 | > 100 µM | > 100 | > 100 µM | > 100 µM |
| O=c1oc2ccc(Br)cc2c(=O)n1-c1ccc(Cl)cc1F | 0.194 µM | 0.772 µM | 2.17 µM | 9.13 | 0.664 µM | 3.32 µM | 0.597 µM | 5.65 µM | 2.38 µM | 11.7 | 2.99 µM | 9.93 µM | 0.925 µM | 6.24 | 1.26 µM | > 39.2 | 0.349 µM | 3.03 | 0.827 µM | 4.54 µM |
| Cc1sc2c(c1C)C(c1ccc(Cl)cc1)=N[C@@H](CC(=O)NCCCN1CCN(C)CC1)c1nnc(C)n1-2 | 0.271 µM | 7.78 µM | 0.352 µM | > 100 | 0.992 µM | > 100 µM | 0.287 µM | > 100 µM | 1.6 µM | > 100 | 0.0995 µM | > 100 µM | 1.24 µM | > 100 | 8.88 µM | > 100 | 3.83 µM | > 100 | 0.362 µM | > 69.9 µM |
